Values of other authors, collected in US6776977B2, “Polypodal chelants for metallopharmaceuticals” (Bristol-Myers Squibb Pharma Company, priority 2001, dated 2004).

Conditions: decomposition under acidic conditions

Kobs: 0.0012 s⁻¹
Compound: O=C([O-])CN(CCN(CC(=O)[O-])CC(=O)[O-])CCN(CC(=O)[O-])CC(=O)[O-].[Gd+3] [Gd(DTPA)^2−]
